Data on 1 substance can be found in US20100267629A1, “Enterostatin as Therapeutic Agent for Hypoglycemia” (Board of Supervisors of Louisiana State University and …, priority 2006, published 2010).

In one experiment the test system is AMPK. Put plainly: In vivo AMPK activity, Western blot of liver and hypothalamus. Set-up: species or system mouse. Here is the method: A separate set of mice (n=6/group) were fasted overnight (18 hours) before injection with either saline vehicle (0.1 ml) or enterostatin (5 or 25 ug/mouse) intraperitoneally. The mice were sacrificed by cervical dislocation either at 30 min (certain enterostatin-treated groups) or 60 min (both certain enterostatin- and vehicle-treated groups) after the injection. The tissues of liver and hypothalamus were rapidly dissected and frozen in liquid nitrogen. The tissues were stored at −80 C before processing for AMPK activity. For AMPK activity, the tissues were unfrozen, the cells lysed, and the cytosolic proteins subjected to Western blot analysis for AMPK and pAMPK activity.
For orientation: In western blotting, separated proteins are transferred to a membrane and probed.

For another experiment, the system named is galanin receptors. Particulars: cited from earlier work.
A further experiment concerns humans. Particulars: cited from earlier work.
The test system of the next experiment is C57B1/6 male mice. Put plainly: Glucose tolerance test. Type of experiment: in vivo, mouse. Particulars: 18 h fasted, vs control. The protocol: Animals: C57B1/6 male mice were purchased from The Jackson Laboratory (Bar Harbor, Me.) at 6 weeks of age. The mice were initially housed in groups of three in acrylic cages in a room with a 12-hour light/dark cycle and with controlled temperature (22 to 23° C.) and with free access to water. The mice were fed a high fat diet (4.78 kcal/g, 56% energy as fat; Research Diets Inc, Brunswick, N.J.). The composition of the diet has been previously described (15). Body weights were measured three time per week. At 8 weeks of age, the mice were switched to single housing.
Peptide Injections: Enterostatin was dissolved in 0.1 ml saline (0.9% NaCl w/v), and given as a single dose of either 5 μg or 25 μg/mouse. Either enterostatin or saline (control) was injected intraperitoneally. In the experiments involving insulin, insulin (0.75 mU/g body weight) or saline (0.1 ml/10 g body weight; control) was injected intraperitoneally.
Enterostatin Effect on Glucose Tolerance Tests: For glucose tolerance tests, mice were fasted overnight (18 hours). Enterostatin (5 or 25 ug/mouse in 0.1 ml saline vehicle) or saline vehicle was injected intraperitoneally (ip) 20 minutes before an intraperitoneal injection of glucose (1.0 mg/gm body weight). Blood samples were taken from the tail vein immediately before glucose administration, and then at 15, 30, 45 and 60 min after glucose injection. […]

Another experiment has as its system rats. Particulars: cited from earlier work.
The conditions of experiment [1]: indirect calorimetry; cited from earlier work.
The target in experiment [2] is T1, Neuropeptide Y1 receptors (Homo sapiens, UniProt P25929).
T1 sequence (P25929 1-384): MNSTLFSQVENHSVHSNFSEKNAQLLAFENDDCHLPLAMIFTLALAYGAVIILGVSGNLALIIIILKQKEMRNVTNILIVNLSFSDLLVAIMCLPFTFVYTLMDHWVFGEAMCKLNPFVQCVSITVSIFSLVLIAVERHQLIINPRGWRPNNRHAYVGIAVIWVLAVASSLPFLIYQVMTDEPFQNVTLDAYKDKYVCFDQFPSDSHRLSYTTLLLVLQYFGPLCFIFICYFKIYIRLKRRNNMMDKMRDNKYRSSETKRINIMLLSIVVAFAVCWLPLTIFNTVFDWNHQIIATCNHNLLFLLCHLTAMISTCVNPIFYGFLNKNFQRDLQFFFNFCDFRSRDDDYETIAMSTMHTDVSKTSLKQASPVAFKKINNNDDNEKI
Particulars: cited from earlier work.

A further experiment concerns islet cells. Particulars: cited from earlier work.

Regarding “Enterostatin: aminoterminal pentapeptide of procolipase released when procolipase is converted into colipase (VPDPR; printed: Val-Pro-Asp-Pro-Arg)”, the “Hypothalamic pAMPK” value in the experiment with AMPK (5 or 25 μg/mouse ip) is “unaltered”. The “Total AMPK” value in the experiment with AMPK (5 or 25 μg/mouse ip) is on record as “unaffected”. In the experiment with AMPK (30 and 60 min after ip injection, even at lower dose (5 μg/mouse)), the “Liver pAMPK levels” value is reported as “reduced”. In addition, the Binding result (with galanin receptors; in experiment [2]) was “not to bind” throughout. The Food intake entry with humans is listed as “not been found to reduce food intake”. The “Subjective feeling of hunger” value in the experiment on humans (intravenous injection) is “reduce the subjective feeling of hunger”. The “Clearance of blood glucose” value with C57B1/6 male mice (5 μg/mouse ip 20 min before glucose 1.0 mg/gm) and in the experiment on C57B1/6 male mice (25 μg/mouse ip 20 min before glucose 1.0 mg/gm) was “no differences” throughout. For the same substance, the “Fat deposition and body weight gain” value in the experiment on rats (chronic icv, HF diets) is “reduction in fat deposition and body weight gain”. Further, the “Daily intake of dietary fat” value with rats (chronic icv, single-choice HF or two-choice HF/LF diet) is “attenuated the daily intake of dietary fat”. The “Energy intake or change in body weight gain” value with rats (chronic treatment, low-fat diet for seven days) is “no significant reduction”. The Fat oxidation entry in experiment [1] is “enhance fat oxidation”. Also, in the experiment on islet cells (glybenclamide 5.0 and 10 μM), the “Insulin secretion stimulated by glybenclamide” value was “inhibited insulin secretion”. Further, the “Intracellular cyclic AMP content” value with islet cells (increase produced by U50,488 100 nM) is recorded as “reduced the increase in intracellular cyclic AMP content”. In addition, in the experiment on islet cells (islets, 16.7 mM glucose, 10^−9 to 10^−5 M, dose-dependent), the Insulin secretion result is “inhibited insulin secretion”. Besides, the “Doses inhibiting insulin secretion” value in the experiment on islet cells (isolated pancreatic islets) was 10^−10 to 10^−6 M. Further, the “Insulin secretion stimulated by U50,488” value in the experiment on islet cells (kappa-opioid agonist U50,488 100 nM) was “inhibited insulin secretion”. In addition, the “Insulin secretion stimulated by TPA” value in the experiment with islet cells (phorbol 12-myristate-13-acetate 50 and 100 nM) was “inhibited insulin secretion”.
